We go through 16 molecules from patent US20140206681A1, “BTK INHIBITORS” (priority 2013, published 2014).

Assay [1] concerns the target T1, BTK enzyme (recombinant full-length BTK, hBTK) (Homo sapiens, UniProt Q06187).
T1 construct: recombinant protein from baculovirus-transfected Sf9 cells: full-length BTK, 6HIS-tag cleaved; 6HIS (cleaved yes); made in house; host or cells: baculovirus-transfected Sf9 cells
The experiment in a line: BTK enzyme activity assay, LANCE TR-FRET. Format: biochemical. Conditions: 50 pM hBTK, 2 μM biotin-A5-peptide, 25 μM ATP; 60 min compound & enzyme incubation; read-out: IC50 BTK activity value. (In general: Time-resolved FRET reads energy transfer from a long-lived donor to a nearby acceptor.)

Assay [2] deals with HeLa cells. The assay is described as follows: [3H]Adenosine uptake functional cellular assay. Type of assay: cell-based. Particulars: Homo sapiens, HeLa, accumulation of [3H]adenosine into HeLa cells; compound range 10 μM to […]; read-out: Adenosine uptake inhibition IC50. The method in brief:
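Inhibition of adenosine uptake was measured in HeLa cells (ATCC CCL-2) by following accumulation of tritiated adenosine. Cells were kept overnight at 37° C. with 5% (v/v) CO2, then switched to 40 μL HBSS plus 5% (v/v) FBS. 20 μL of 500 nM [3H]adenosine was added, and uptake was counted on a Topcount NXT reader.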

A word on the IC50: it is the concentration at which inhibition is half-maximal.

T1 sequence (Q06187 whole entry): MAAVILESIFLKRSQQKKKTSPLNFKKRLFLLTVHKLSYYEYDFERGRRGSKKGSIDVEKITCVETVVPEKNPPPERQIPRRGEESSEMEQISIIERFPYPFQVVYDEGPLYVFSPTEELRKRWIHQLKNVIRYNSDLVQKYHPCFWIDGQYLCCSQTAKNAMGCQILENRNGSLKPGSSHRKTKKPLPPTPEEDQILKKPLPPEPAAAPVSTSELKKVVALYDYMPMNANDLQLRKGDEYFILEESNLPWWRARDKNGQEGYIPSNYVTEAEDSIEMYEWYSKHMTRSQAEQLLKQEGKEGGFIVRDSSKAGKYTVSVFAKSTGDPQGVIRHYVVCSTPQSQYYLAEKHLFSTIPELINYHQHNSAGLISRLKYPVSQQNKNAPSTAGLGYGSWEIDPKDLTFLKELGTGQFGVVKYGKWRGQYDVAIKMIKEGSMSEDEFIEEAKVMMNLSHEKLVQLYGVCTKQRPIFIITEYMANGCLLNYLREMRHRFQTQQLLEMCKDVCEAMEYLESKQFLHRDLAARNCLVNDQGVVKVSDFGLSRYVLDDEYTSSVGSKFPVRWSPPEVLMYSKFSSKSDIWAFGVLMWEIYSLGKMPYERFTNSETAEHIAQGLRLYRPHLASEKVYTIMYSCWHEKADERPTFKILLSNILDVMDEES

On to `CCOc1cc(C(=O)Nc2cc(C(F)(F)F)n(C)n2)ccc1-c1nc([C@@H]2CC[C@H]3CCC(=O)N3C2)n2c(C)cnc(N)c12` [Example 205, 4-{8-amino-5-methyl-3-[(6R,8aS)-3-oxooctahydroindolizin-6-yl]imidazo[1,5-a]pyrazin-1-yl}-3-ethoxy-N-[1-methyl-5-(trifluoromethyl)-1H-pyrazol-3-yl]benzamide], for which the IC50 in assay [1] amounted to 1.2 nM; in assay [2] it was 2360 nM.
The corresponding values for `CCOc1cc(C(=O)Nc2cc(C(F)(F)F)ccn2)ccc1-c1nc([C@@H]2CC[C@H]3CCC(=O)N3C2)n2c(C(F)(F)F)cnc(N)c12` [Example 206, 4-{8-amino-3-[(6R,8aS)-3-oxooctahydroindolizin-6-yl]-5-(trifluoromethyl)imidazo [1,5-a]pyrazin-1-yl}-3-ethoxy-N-[4-(trifluoromethyl)pyridin-2-yl]benzamide] are 0.72 nM and 1110 nM.
Turning to `CCc1ccnc(NC(=O)c2ccc(-c3nc([C@@H]4CC[C@H]5CCC(=O)N5C4)n4c(Cl)cnc(N)c34)c(OC)c2)c1` [Example 207, 4-{8-amino-5-chloro-3-[(6R,8aS)-3-oxooctahydroindolizin-6-yl]imidazo[1,5-a]pyrazin-1-yl}-N-(4-ethylpyridin-2-yl)-3-methoxybenzamide], the IC50 in assay [1] is 0.58 nM; in assay [2], 377 nM.
Take `COc1ccnc(NC(=O)c2ccc(-c3nc([C@@H]4CC[C@H]5CCC(=O)N5C4)n4c(Cl)cnc(N)c34)c(OC)c2)c1` [Example 208, 4-{8-amino-5-chloro-3-[(6R,8aS)-3-oxooctahydroindolizin-6-yl]imidazo[1,5-a]pyrazin-1-yl}-3-methoxy-N-(4-methoxypyridin-2-yl)benzamide]: the IC50 in assay [1] is 1.6 nM; in assay [2], 386 nM.
The corresponding values for `COc1cc(C(=O)Nc2cc(C3CCC3)ccn2)ccc1-c1nc([C@@H]2CC[C@H]3CCC(=O)N3C2)n2c(Cl)cnc(N)c12` [Example 209, 4-{8-amino-5-chloro-3-[(6R,8aS)-3-oxooctahydroindolizin-6-yl]imidazo[1,5-a]pyrazin-1-yl}-N-(4-cyclobutylpyridin-2-yl)-3-methoxybenzamide] are 0.41 nM and 582 nM.
With `COc1cc(C(=O)Nc2ccc(C)cn2)ccc1-c1nc([C@@H]2CC[C@H]3CCC(=O)N3C2)n2c(Cl)cnc(N)c12` [Example 210, 4-{8-amino-5-chloro-3-[(6R,8aS)-3-oxooctahydroindolizin-6-yl]imidazo[1,5-a]pyrazin-1-yl}-3-methoxy-N-(5-methylpyridin-2-yl)benzamide], the IC50 came to 1.4 nM in assay [1] and 1120 nM in assay [2].
The corresponding values for `Nc1ncc(C(F)(F)F)n2c([C@@H]3CC[C@H]4CCC(=O)N4C3)nc(-c3ccc(C(=O)Nc4cc(C(F)(F)F)ccn4)cc3Cl)c12` [Example 211, 4-{8-amino-3-[(6R,8aS)-3-oxooctahydroindolizin-6-yl]-5-(trifluoromethyl)imidazo[1,5-a]pyrazin-1-yl}-3-chloro-N-[4-(trifluoromethyl)pyridin-2-yl]benzamide] are 9 nM and 269 nM.
Take `Nc1ncc(C(F)(F)F)n2c([C@@H]3CC[C@H]4CCC(=O)N4C3)nc(-c3ccc(C(=O)Nc4cc(C5CC5)ccn4)cc3F)c12` [Example 212, 4-{8-amino-3-[(6R,8aS)-3-oxooctahydroindolizin-6-yl]-5-(trifluoromethyl)imidazo [1,5-a]pyrazin-1-yl}-N-(4-cyclopropylpyridin-2-yl)-3-fluorobenzamide]: the values for the IC50 in assay [1] and in assay [2] were 3.8 nM and 86.9 nM, respectively.
In the case of `COc1cc(C(=O)Nc2cc(C(F)(F)F)ccn2)ccc1-c1nc([C@@H]2CC[C@H]3CCC(=O)N3C2)n2c(C(F)(F)F)cnc(N)c12` [Example 213, 4-{8-amino-3-[(6R,8aS)-3-oxooctahydroindolizin-6-yl]-5-(trifluoromethyl)imidazo[1,5-a]pyrazin-1-yl}-3-methoxy-N-[4-(trifluoromethyl)pyridin-2-yl]benzamide], the IC50 came to 2.7 nM in assay [1] and 699 nM in assay [2].
As for `Cc1cc(C(=O)Nc2cc(C(F)(F)F)ccn2)cc(F)c1-c1nc([C@@H]2CC[C@H]3CCC(=O)N3C2)n2ccnc(N)c12` [Example 214, 4-{8-amino-3-[(6R,8aS)-3-oxooctahydroindolizin-6-yl]imidazo[1,5-a]pyrazin-1-yl}-3-fluoro-5-methyl-N-[4-(trifluoromethyl)pyridin-2-yl]benzamide], the half-maximal inhibitory concentration (IC50) in assay [1] turned out to be 2.2 nM; in assay [2], 517 nM.
The corresponding values for `CCOc1cc(C(=O)Nc2cc(C(F)(F)F)n(C)n2)ccc1-c1nc([C@@H]2CC[C@H]3CCC(=O)N3C2)n2c(C(F)(F)F)cnc(N)c12` [Example 215, 4-{8-amino-3-[(6R,8aS)-3-oxooctahydroindolizin-6-yl]-5-(trifluoromethyl)imidazo[1,5-a]pyrazin-1-yl}-3-ethoxy-N-[1-methyl-5-(trifluoromethyl)-1H-pyrazol-3-yl]benzamide] are 4 nM and 2470 nM.
In the case of `CC(F)(F)Oc1cc(C(=O)Nc2cc(C(F)(F)F)ccn2)ccc1-c1nc([C@@H]2CC[C@H]3CCC(=O)N3C2)n2c(Cl)cnc(N)c12` [Example 216, 4-{8-amino-5-chloro-3-[(6R,8aS)-3-oxooctahydroindolizin-6-yl]imidazo[1,5-a]pyrazin-1-yl}-3-(1,1-difluoroethoxy)-N-[4-(trifluoromethyl)pyridin-2-yl]benzamide], the IC50 in assay [1] was found to be 6.6 nM; in assay [2], 895 nM.
For the molecule `COc1cc(C(=O)Nc2cc(C(F)(F)F)ccn2)cc(F)c1-c1nc([C@@H]2CC[C@H]3CCC(=O)N3C2)n2c(Cl)cnc(N)c12` [Example 217, 4-{8-amino-5-chloro-3-[(6R,8aS)-3-oxooctahydroindolizin-6-yl]imidazo[1,5-a]pyrazin-1-yl}-3-fluoro-5-methoxy-N-[4-(trifluoromethyl)pyridin-2-yl]benzamide], the figures for the IC50 in assay [1] and in assay [2] were 0.17 nM and 714 nM, respectively.
Take `COc1cc(C(=O)Nc2cc(C(F)(F)F)ccn2)c(Cl)cc1-c1nc([C@@H]2CC[C@H]3CCC(=O)N3C2)n2c(Cl)cnc(N)c12` [Example 218, 4-{8-amino-5-chloro-3-[(6R,8aS)-3-oxooctahydroindolizin-6-yl]imidazo[1,5-a]pyrazin-1-yl}-2-chloro-5-methoxy-N-[4-(trifluoromethyl)pyridin-2-yl]benzamide]: the IC50 in assay [1] amounted to 1.8 nM; in assay [2] it was 4850 nM.
The corresponding values for `COc1cc(C(=O)Nc2cc(C(F)(F)F)ccn2)cc(F)c1-c1nc([C@@H]2CC[C@H]3CC(C)(C)C(=O)N3C2)n2ccnc(N)c12` [Example 219, 4-{8-amino-3-[(6R,8aS)-2,2-dimethyl-3-oxooctahydroindolizin-6-yl]imidazo[1,5-a]pyrazin-1-yl}-3-fluoro-5-methoxy-N-[4-(trifluoromethyl)pyridin-2-yl]benzamide] are 0.28 nM and 726 nM.
The like results for `COc1cc(C(=O)Nc2cc(C(F)(F)F)ccn2)cc(F)c1-c1nc([C@@H]2CC[C@H]3CCC(=O)N3C2)n2c(F)cnc(N)c12` [Example 220, 4-{8-amino-5-fluoro-3-[(6R,8aS)-3-oxooctahydroindolizin-6-yl]imidazo[1,5-a]pyrazin-1-yl}-3-fluoro-5-methoxy-N-[4-(trifluoromethyl)pyridin-2-yl]benzamide] were, in that order, 0.4 nM and 1520 nM.
